In patent publication US20140377289A1, “Metallodrugs Having Improved Pharmacological Properties, and Methods of Manufacture and Use Thereof” (MetalloPharm, LLC, priority 2011, published 2014):

What was measured:
[1] = tested on: ET (luc-ubi-neo/ET) Huh7 human hepatoma cell line; details: read-out: cytotoxicity TC50; 72 h, CytoTox-1 colorimetric assay
[2] = tested on: HCV RNA replicon in ET (luc-ubi-neo/ET) Huh7 cells; details: read-out: antiviral IC50; 72 h, replicon-derived Luc activity
S. aureus sortase A = S. aureus sortase A (Staphylococcus aureus, UniProt Q2FV99); type: biochemical; details: for activity for catalyst concentration of 1 μM: catalyst concentration 1 μM
Sequence of S. aureus sortase A (Q2FV99 whole entry): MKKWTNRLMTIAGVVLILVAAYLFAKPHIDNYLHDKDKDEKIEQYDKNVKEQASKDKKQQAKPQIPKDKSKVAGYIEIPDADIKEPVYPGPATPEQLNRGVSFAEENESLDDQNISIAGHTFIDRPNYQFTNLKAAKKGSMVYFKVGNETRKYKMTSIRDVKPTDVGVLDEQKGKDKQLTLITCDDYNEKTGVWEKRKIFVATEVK
Method: Apparent binding affinities and rates of inactivation for S. aureus sortase A by several metallopeptide derivatives were evaluated. […]

| Substance | CC50 [1] | IC50 [2] | IC50 (S. aureus sortase A) | activity for catalyst concentration of 1 μM (S. aureus sortase A) |
| --- | --- | --- | --- | --- |
| Cu-GGHGKYKETDLLILFKDDYFAKKNEERK | > 100000 nM | 550 nM |  |  |
| Cu-GGHGKYKETDLLILFKDDYFAKKNEERKKDEL | > 50000 nM | 750 nM |  |  |
| Cu-GGHGLPET |  |  | > 100000 nM | 0.027 |
| Cu-GGHGLPETG |  |  | > 100000 nM | 0.012 |
| Cu-GGHGYrFK | > 100000 nM | 1380 nM |  |  |
| Cu-GGHGYrFKGGGKDEL | > 100000 nM | 910 nM |  |  |
| Cu-GGHGYrFKGGGYGRKKRRQRRR | 96000 nM | 950 nM |  |  |
| Cu-GGHKYKETDLLILFKDDYFAKKNEERKYGRKKRRQRRR | > 50000 nM | 830 nM |  |  |
| Cu-GGHLPETG |  |  | > 100000 nM | 0.017 |
| Cu-GGHYrFKGGGYGRKKRRQRRR | 84000 nM | 1850 nM |  |  |
